Experimental data taken from article PMC5957530 (FEBS letters, 2017).
Where two headings read alike, the source gives them in different places.

B1: O-acetylserine sulfhydrylase-A (CysK) from E. coli (enzyme, UniProt P0ABK5 1-323, looked up)
chain: MSKIFEDNSLTIGHTPLVRLNRIGNGRILAKVESRNPSFSVKCRIGANMIWDAEKRGVLKPGVELVEPTSGNTGIALAYVAAARGYKLTLTMPETMSIERRKLLKALGANLVLTEGAKGMKGAIQKAEEIVASNPEKYLLLQQFSNPANPEIHEKTTGPEIWEDTDGQVDVFIAGVGTGGTLTGVSRYIKGTKGKTDLISVAVEPTDSPVIAQALAGEEIKPGPHKIQGIGAGFIPANLDLKLVDKVIGITNEEAISTARRLMEEEGILAGISSGAAVAAALKLQEDESFTNKNIVVILPSSGERYLSTALFADLFTEKELQQ
modifications: bound pyridoxal 5'-phosphate (PLP) cofactor

Tests used:
[1] = molecular target: T1, cysteine synthase complex (CSC; E. coli CysE in complex with E. coli CysK) (Escherichia coli, UniProt P0A9D4); assay: L-Ser acetylation steady-state kinetics of CysE in complex with CysK; settings: for apparent kcat: per CysE hexamer
T1 sequence (P0A9D4 1-273): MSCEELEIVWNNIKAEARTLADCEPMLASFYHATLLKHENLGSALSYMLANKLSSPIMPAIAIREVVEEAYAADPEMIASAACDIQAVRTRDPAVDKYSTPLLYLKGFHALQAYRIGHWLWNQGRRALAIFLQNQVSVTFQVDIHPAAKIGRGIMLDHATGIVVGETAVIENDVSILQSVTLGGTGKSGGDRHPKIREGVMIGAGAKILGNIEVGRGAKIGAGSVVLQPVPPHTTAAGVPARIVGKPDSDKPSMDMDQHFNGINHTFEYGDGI
T1 sequence (P0ABK5 1-323 partner): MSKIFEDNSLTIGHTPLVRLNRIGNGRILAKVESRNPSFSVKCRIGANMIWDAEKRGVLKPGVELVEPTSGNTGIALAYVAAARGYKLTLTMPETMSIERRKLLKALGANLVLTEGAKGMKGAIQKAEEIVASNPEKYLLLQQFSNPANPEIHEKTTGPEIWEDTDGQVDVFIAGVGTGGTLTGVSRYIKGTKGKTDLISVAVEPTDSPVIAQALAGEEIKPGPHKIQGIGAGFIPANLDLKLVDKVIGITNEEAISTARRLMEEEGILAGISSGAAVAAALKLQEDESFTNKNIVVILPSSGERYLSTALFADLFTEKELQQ

Escherichia coli CysE = molecular target: T2, Escherichia coli CysE (Escherichia coli, UniProt P0A9D4); assay: L-Ser acetylation steady-state kinetics of isolated CysE; settings: for apparent kcat: per CysE hexamer
T2 sequence (P0A9D4 1-273): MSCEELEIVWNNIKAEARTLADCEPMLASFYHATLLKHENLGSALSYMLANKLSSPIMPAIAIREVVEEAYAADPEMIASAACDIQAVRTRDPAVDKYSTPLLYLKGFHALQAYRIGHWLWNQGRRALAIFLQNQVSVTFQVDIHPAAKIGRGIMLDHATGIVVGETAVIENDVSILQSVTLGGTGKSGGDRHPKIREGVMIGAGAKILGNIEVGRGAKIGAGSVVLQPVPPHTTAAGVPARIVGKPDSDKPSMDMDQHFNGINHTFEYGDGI

CysK = CysK (Escherichia coli, UniProt P0ABK5); assay: Fluorescence titration of CysK; format: binding; settings: in the presence of 10 μM L-Cys
plant CysE = plant CysE in the CSC vs free; cited from earlier work
SEC = molecular target: the molecule itself; assay: SEC
[2] = substrate: N[C@@H](CO)C(=O)O; assay: purified protein, by the assay type; settings: 20.0 °C
[3] = molecular target: B1; assay: other fluorescence titration
[4] = molecular target: B1; assay: inhibition of enzyme activity

CC(=O)SCCNC(=O)CCNC(=O)[C@H](O)C(C)(C)COP(=O)(O)OP(=O)(O)OC[C@H]1O[C@@H](n2cnc3c(N)ncnc32)[C@H](O)[C@@H]1OP(=O)(O)O [Acetyl-CoA, acetyl-CoA]
apparent kcat ([1]; +CysK fivefold molar excess, acetyl-CoA varied, L-Ser 20 mM): 416 ± 38 s⁻¹ | Km ([1]; read-out: KM,acCoA, +CysK fivefold molar excess, global fit Eqn 2): 300 ± 100 µM | Kd ([1]; read-out: Kd,acCoa, +CysK fivefold molar excess, global fit Eqn 2): 100 ± 100 µM | apparent kcat (Escherichia coli CysE; -CysK, acetyl-CoA varied, L-Ser 20 mM): 306 ± 35 s⁻¹ | Km (Escherichia coli CysE; read-out: KM,acCoA, -CysK, global fit Eqn 2): 300 ± 100 µM | Kd (Escherichia coli CysE; read-out: Kd,acCoa, -CysK, dissociation from unligated enzyme, global fit Eqn 2): 100 ± 100 µM | Km (Escherichia coli CysE; read-out: apparent KM, -CysK, acetyl-CoA varied, L-Ser 20 mM, 20 °C): 1400 ± 400 µM

N[C@@H](CO)C(=O)O [L-Ser, L-serine]
Kd [1]: 600 ± 200 µM | Ki [1]: 16000 ± 5000 µM | apparent kcat ([1]; +CysK fivefold molar excess, L-Ser varied, acetyl-CoA […]): 228 ± 34 s⁻¹ | increase in the L-Ser inhibition constant, CSC vs free CysE ([1]; CysE in complex with CysK): four fold | Kd (Escherichia coli CysE): 500 ± 200 µM | apparent kcat (Escherichia coli CysE; -CysK, L-Ser varied, acetyl-CoA […]): 228 ± 60 s⁻¹

N[C@@H](CS)C(=O)O [L-Cys, L-cysteine]
fold increase in the dissociation constant of the CSC (CysK): 10 fold | fold increase of L-Cys Ki of plant CysE in the CSC (plant CysE): more than 35 fold | increase in L-Cys IC50 of plant CysE in the CSC (plant CysE): fourfold | IC50 [1]: 0.7 µM | increase of L-Cys IC50 in the CSC vs free CysE ([1]; presence of molar excess CysK): fourfold | IC50 (Escherichia coli CysE; IC50 for L-Cys, free CysE): 0.18 µM | IC50 (Escherichia coli CysE; L-Cys concentration around the IC50, 0.1 mM L-Ser (physiological), Fig. S5B): ~0.07 µM | IC50 (Escherichia coli CysE; L-Cys concentration around the IC50, 20 mM L-Ser (saturating), Fig. S5B): ~0.5 µM

B1
stoichiometry N (SEC): 2

B2: Escherichia coli CysE (Escherichia coli K-12) (protein)
chain: MSCEELEIVWNNIKAEARTLADCEPMLASFYHATLLKHENLGSALSYMLANKLSSPIMPAIAIREVVEEAYAADPEMIASAACDIQAVRTRDPAVDKYSTPLLYLKGFHALQAYRIGHWLWNQGRRALAIFLQNQVSVTFQVDIHPAAKIGRGIMLDHATGIVVGETAVIENDVSILQSVTLGGTGKSGGDRHPKIREGVMIGAGAKILGNIEVGRGAKIGAGSVVLQPVPPHTTAAGVPARIVGKPDSDKPSMDMDQHFNGINHTFEYGDGI
Km ([2]; other: -CysK, L-Ser varied, acetyl-CoA […]): 1700 ± 700 µM | Km ([2]; other: -CysK, global fit, random-order mechanism (Eqn 2)): 1300 ± 200 µM

B3: serine acetyltransferase (CysE) from E. coli (enzyme, UniProt P0A9D4 1-273, looked up)
chain: MSCEELEIVWNNIKAEARTLADCEPMLASFYHATLLKHENLGSALSYMLANKLSSPIMPAIAIREVVEEAYAADPEMIASAACDIQAVRTRDPAVDKYSTPLLYLKGFHALQAYRIGHWLWNQGRRALAIFLQNQVSVTFQVDIHPAAKIGRGIMLDHATGIVVGETAVIENDVSILQSVTLGGTGKSGGDRHPKIREGVMIGAGAKILGNIEVGRGAKIGAGSVVLQPVPPHTTAAGVPARIVGKPDSDKPSMDMDQHFNGINHTFEYGDGI
stoichiometry N [3]: ~1.6 CysE:CysK | stoichiometry N (SEC): 6 | Ki app [4]: 0.0087 ± 0.001 µM

B4: cysteine synthase complex (CSC; E. coli CysE in complex with E. coli CysK) (Escherichia coli K-12) (protein)
chain: MSCEELEIVWNNIKAEARTLADCEPMLASFYHATLLKHENLGSALSYMLANKLSSPIMPAIAIREVVEEAYAADPEMIASAACDIQAVRTRDPAVDKYSTPLLYLKGFHALQAYRIGHWLWNQGRRALAIFLQNQVSVTFQVDIHPAAKIGRGIMLDHATGIVVGETAVIENDVSILQSVTLGGTGKSGGDRHPKIREGVMIGAGAKILGNIEVGRGAKIGAGSVVLQPVPPHTTAAGVPARIVGKPDSDKPSMDMDQHFNGINHTFEYGDGI
Km ([2]; other: +CysK fivefold molar excess, L-Ser varied, acetyl-CoA […]): 1100 ± 400 µM | Km ([2]; other: +CysK fivefold molar excess, global fit Eqn 2): 1200 ± 200 µM
